Structures can show the parent of a compound that is named as a salt.
Legend:
mice [1] = conditions: comparison anesthetics, disclosed in Japanese Patent Application Laid Open No. 50-154410; cited from earlier work
mice [2] = conditions: comparison anesthetics, disclosed in Japanese Patent Application Laid Open No. 50-154410, cited from earlier work; for T. I.(mouse): LD50/HD50

## CCOC(=O)CC1c2cc(C)c(C)cc2C(=S)N1c1cccnc1 (centres unmarked)
other
  melting point: 158 to 158.5 °C

## Cc1cc2c(cc1C)C(C(=O)O)N(c1cccc(F)c1)C2=O (centres unmarked) (as salt: hydrochloride)
other
  melting point: 152 to 157.5 °C

## Cc1cc2c(cc1C)C(OCC(=O)O)N(c1cccc(F)c1)C2=O (centres unmarked) (as salt: hydrochloride)
other
  melting point: 145 to 146 °C

## Cc1cc2c(cc1C)C(OCC(=O)N1CCN(C)CC1)N(c1cccc(F)c1)C2=O (centres unmarked) (as salt: hydrochloride)
other
  melting point: 138 to 144.5 °C

## CCCOC(=O)CC1c2cc(C)c(C)cc2C(=O)N1c1cccnc1 (centres unmarked) (as salt: hydrochloride)
other
  melting point: 201.5 to 208.5 °C

## CC(C)c1cccc(C(C)C)c1O [Propofol, 2,6-diisopropylphenol]
Mice [1]
  HD50: 13.5 mg/kg
Mice [2]
  T. I.(mouse): 4.14
  LD50: 56 mg/kg

## CCCC(C)C1(CC)C(=O)NC(=S)NC1=O (centres unmarked) [Thiopental Sodium, thiopental sodium]
Mice [1]
  HD50: 23.5 mg/kg
Mice [2]
  T. I.(mouse): 4.26
  LD50: 100 mg/kg

— patent US7521451B2, “Isoindoline derivative” (Maruishi Pharmaceutical Co., Ltd., priority 2002, dated 2009)
